This is an account of results in article PMC13086964, “USP7 deubiquitinase stabilizes FAN1 to support DNA crosslink repair and suppress CAG repeat expansion” (Nature Communications, 2026).

Experiment [1] has as its system USP7 TRAF (aa 2-207). The experiment is described as follows: fluorescence polarization assay, FITC-labelled FAN1-derived peptides. The experiment is classed as binding, human. Conditions: 8mer FITC-labelled peptides; 20 mM HEPES pH 7.4, 50 mM KCl, 1 mM TCEP, 0.005% Tween-20, 0.2% DMSO; USP7 TRAF 14-point 2-fold from 200 µM; 1 µL of 200 nM peptide added to 19 µL; n = 3. On the procedure:
Fig. 2 FAN1 associates with the TRAF-like and UBL domains of USP7. A Top: schematic representation of the human USP7 protein indicating point mutants. TRAF tumour necrosis factor receptor associated factor (orange), CD catalytic domain (cyan), UBL ubiquitin-like (yellow to brown). Bottom: HEK293^eGFP-FAN1 cells were transfected with either e.v. or the indicated FLAG-USP7 expression constructs. 24 h later, GFP-FAN1 expression was induced with Dox (100 ng/ml). 48 h post induction, cells were lysed and whole-cell extracts were subjected to IP using anti-FLAG M2 affinity resin. Inputs and recovered protein complexes were analysed by immunoblotting. Asterisk indicates IgG heavy chain from anti-FLAG M2 affinity resin. B Sequences of the biotinylated 12-mer FAN1-derived TRAF peptides. The corresponding amino acids are indicated. Key residues are highlighted in bold. B, C Biotinylated FAN1 TRAF peptides (10 µg) were immobilized on Strep-Tactin®XT-4Flow® resin and incubated with recombinant purified His-USP7. Inputs and recovered His-USP7 were analysed by immunoblotting. D Fluorescence polarization (FP) binding curves of FITC-labelled FAN1-derived 8mer peptides: wild-type (wt; black circle), P181A (green triangle), Q182A (orange diamond), S184A (red square). The corresponding amino acids are indicated. Key residues are highlighted in bold. FP was measured as a function of USP7-TRAF (aa 2–207) concentration. FP values were normalized by expressing the millipolarization (mP) of each sample relative to the corresponding wild-type peptide. Background signal was corrected by subtracting baseline FP measured in the absence of USP7-TRAF. […] Inputs and recovered protein complexes were analysed by immunoblotting. […]
USP7 TRAF (aa 2-207) was serially diluted (14-point, 2-fold) in assay buffer (20 mM HEPES (pH 7.4), 50 mM KCl, 1 mM TCEP, 0.005% Tween-20 (v/v), 0.2% DMSO (v/v)) from a top concentration of 200 µM. […] Fluorescence polarization (mP, millipolarization units) was measured using Agilent BioTek Synergy H1 with excitation 485 nm, emission 528 nm, gain 80, in a kinetic read (6 measurements in 30 min). […]
Background: In fluorescence polarisation assays a small probe gives low polarisation when free and higher when bound to something large.

Experiment [2] deals with USP7. The experiment in a line: streptavidin pulldown of biotinylated FAN1 peptides with recombinant His-USP7. In kind it is binding, human. Conditions: 10 µg peptide on Strep-Tactin XT 4Flow resin, 0.5 µg recombinant USP7, 2 h at 4 °C, immunoblot; for USP7 binding of biotinylated FAN1 UBL peptide: 13mer UBL peptides; for USP7 binding of biotinylated FAN1 peptide: 12mer TRAF peptides, repeated three times. On the procedure:
Fig. 2 FAN1 associates with the TRAF-like and UBL domains of USP7. A Top: schematic representation of the human USP7 protein indicating point mutants. TRAF tumour necrosis factor receptor associated factor (orange), CD catalytic domain (cyan), UBL ubiquitin-like (yellow to brown). Bottom: HEK293^eGFP-FAN1 cells were transfected with either e.v. or the indicated FLAG-USP7 expression constructs. 24 h later, GFP-FAN1 expression was induced with Dox (100 ng/ml). 48 h post induction, cells were lysed and whole-cell extracts were subjected to IP using anti-FLAG M2 affinity resin. Inputs and recovered protein complexes were analysed by immunoblotting. Asterisk indicates IgG heavy chain from anti-FLAG M2 affinity resin. B Sequences of the biotinylated 12-mer FAN1-derived TRAF peptides. The corresponding amino acids are indicated. Key residues are highlighted in bold. B, C Biotinylated FAN1 TRAF peptides (10 µg) were immobilized on Strep-Tactin®XT-4Flow® resin and incubated with recombinant purified His-USP7. Inputs and recovered His-USP7 were analysed by immunoblotting. D Fluorescence polarization (FP) binding curves of FITC-labelled FAN1-derived 8mer peptides: wild-type (wt; black circle), P181A (green triangle), Q182A (orange diamond), S184A (red square). The corresponding amino acids are indicated. Key residues are highlighted in bold. FP was measured as a function of USP7-TRAF (aa 2–207) concentration. FP values were normalized by expressing the millipolarization (mP) of each sample relative to the corresponding wild-type peptide. Background signal was corrected by subtracting baseline FP measured in the absence of USP7-TRAF. Data are presented as the means ± SD of three biological replicates (n = 3). E Top: schematic representation of the human USP7 protein indicating truncation mutants. TRAF tumour necrosis factor receptor associated factor, CD catalytic domain, UBL ubiquitin-like. HEK293^eGFP-FAN1 cells were transfected with either e.v. or the indicated FLAG-USP7 expression constructs. 24 h later, GFP-FAN1 expression was induced with Dox (100 ng/ml). 48 h post induction, cells were lysed and whole-cell extracts were subjected to IP using anti-FLAG M2 affinity resin. Inputs and recovered protein complexes were analysed by immunoblotting. Asterisk indicates IgG heavy chain from anti-FLAG M2 affinity resin. The experiments in (A–C, E) were repeated three independent times.
For peptide pull-down assays, biotinylated FAN1 peptides were incubated with Strep-Tactin® XT 4Flow® resin (IBA LifeScience) at room temperature for 30 minutes and washed four times with 0.1% Triton-PBS and two times with HNE buffer (20 mM HEPES pH 7.5, 0.2 mM EDTA, 0.5% NP-40, 150 mM NaCl, 0.5 mM DTT, 0.1% BSA, 0.5 mM PMSF). […] Beads were then washed three times with HNE buffer, once with TEN300 (20 mM Tris-HCl pH 7.4, 0.1 mM EDTA and 300 mM NaCl) and once with TEN100 buffer. Complexes were boiled in SDS sample buffer and analysed by SDS–PAGE followed by immunoblotting.
Figure S3 (Related to Figure 2). USP7 contacts FAN1 via its UBL domain. […]
Inputs and recovered MBP-His-FAN1 were analysed by immunoblotting. (C) Sequences of the biotinylated 13-mer FAN1-derived UBL peptides. The corresponding amino acids are indicated. Key residues are highlighted in bold. (C and D) Biotinylated FAN1 UBL peptides (10 µg) were immobilized on Strep-Tactin® XT 4Flow® resin and incubated with recombinant purified His-USP7. Inputs and recovered His-USP7 were analysed by immunoblotting. […]
The experiments in (A-E) were repeated three independent times.
For orientation: In western blotting, separated proteins are transferred to a membrane and probed.

Experiment [3] deals with FAN1-USP7. The experiment in a line: GFP-Trap co-IP after UAE inhibition, FAN1-USP7 binding. In kind it is cell-based, human. Conditions: HEK293T cells, 10 μM for 2 h. On the procedure:
Cells were lysed in NP-40 buffer [50 mM tris-HCl (pH 7.5), 120 mM NaCl, 1 mM EDTA, 6 mM EGTA, 15 mM sodium pyrophosphate, and 1% NP-40, supplemented with phosphatase inhibitors (20 mM NaF and 1 mM Na3VO4) and protease inhibitors (1 mM benzamidine, 0.1 mM PMSF and cOmplete™ Protease Inhibitor Cocktail)], incubated with Benzonase (Merck) for at least 30 min at 4 °C, and clarified by centrifugation. Between 1 and 3 mg of lysates were incubated with anti-FLAG M2 (Sigma-Aldrich) or ChromoTek GFP-Trap® Agarose resin (Proteintech) for 2 h or overnight at 4 °C. The beads were then washed three times with NP-40 buffer and once with TEN100 buffer. Retrieved protein complexes were boiled in SDS sample buffer and analysed by SDS-PAGE followed by immunoblotting.
(§1) Figure S1 (related to Figure 1). […]
ubiquitin. (A) HEK293eGFP-FAN1 cells were transfected either with non-targeting (Ctrl) or the indicated siRNA oligos. 24 h later, GFP-FAN1 expression was induced with Dox (100 ng/ml). 24 h post induction, cells were lysed and whole-cell extracts were subjected to GFP-Trap resin. Inputs and recovered protein complexes were analysed by immunoblotting. (B) HEK293 cells were transfected with either e.v. or GFP-FAN1-wt expressing constructs. […] Inputs and recovered protein complexes were analysed by immunoblotting. […] Inputs and recovered protein complexes were analysed by immunoblotting. […]

Experiment [4] deals with cellular ubiquitin conjugates. The experiment is described as follows: cellular ubiquitin conjugates after UAE inhibition. The experiment is classed as cell-based. As to conditions: HEK293T cells, 10 μM for 2 h. The procedure:
as §1
ubiquitin. (A) HEK293eGFP-FAN1 cells were transfected either with non-targeting (Ctrl) or the indicated siRNA oligos. 24 h later, GFP-FAN1 expression was induced with Dox (100 ng/ml). 24 h post induction, cells were lysed and whole-cell extracts were subjected to GFP-Trap resin. Inputs and recovered protein complexes were analysed by immunoblotting. (B) HEK293 cells were transfected with either e.v. or GFP-FAN1-wt expressing constructs. 48 h later, cells were lysed and whole-cell extracts were incubated with a FAN1-derived 60-mer peptide (aa 118 to 177) for 2 h and subjected to GFP-Trap resin. Inputs and recovered protein complexes were analysed by immunoblotting. (C) HEK293T cells were transfected with either e.v. or GFP-FAN1-wt expressing constructs. 48 h later, cells were either mock-treated (-) or treated (+) with TAK-243 (10 μM) for 2 h, lysed and whole-cell extracts were subjected to GFP-Trap resin. Inputs and recovered protein complexes were analysed by immunoblotting. The experiments in (A-C) were repeated three independent times.
(1 picture or pasted object on this page, not shown here)

Where no end group is shown, it is not given here. The star is where a group is joined. FITC = O=C1OC2(c3ccc(O)cc3Oc3cc(O)ccc32)c2ccc(NC(=S)*)cc21; Biotin = O=C1N[C@H]2[C@H](CS[C@H]2CCCCC(=O)*)N1; Ahx = NCCCCCC(=O)O

On to “{FITC-Ahx}-SSAQSSKS [TRAF3 P181A (8mer), FITC-labelled FAN1-derived 8mer peptide, P181A]”, for which the “binding to the USP7 TRAF domain (FP)” value in experiment [1] is on record as “did not abolish the interaction”.

Take “Biotin-SLASKLSRKYVKA-NH2 [UBL2 (12mer), biotinylated FAN1-derived 13mer UBL peptide with 158-KLSRK-162]”: the “USP7 binding of biotinylated FAN1 UBL peptide” value in experiment [2] was “exhibited detectable USP7 binding”.

In the case of “Biotin-SLASALSRAYVKA-NH2 [UBL2 2KA (12mer), FAN1 UBL2 K158A/K162A (2KA) 13mer peptide]”, the results for the “USP7 binding of biotinylated FAN1 UBL peptide” value in experiment [2] and in experiment [2] (listed as K158A/K162A ‘UBL2’ mutant peptide) were “did not abolish USP7 association” and “no reduction in USP7 binding”, respectively.

Turning to “{FITC-Ahx}-SSPQSSKS [TRAF3 (8mer), FITC-labelled FAN1-derived 8mer peptide, wild-type]”, in experiment [1], the “binding to the USP7 TRAF domain (FP)” value is given as “bound efficiently to the USP7 TRAF domain”.

Regarding “Biotin-PLEQGSSCNGPG-NH2 [TRAF4 (12mer), biotinylated 12mer FAN1 peptide containing the 358-EQGS-361 motif]”, the “USP7 binding of biotinylated FAN1 peptide” value in experiment [2] was “weak USP7 binding”.

Turning to “Biotin-AGSSPQSAKSTV-NH2 [TRAF3 S184A (12mer), biotinylated 12mer FAN1 peptide, S184A]”, the “USP7 binding of biotinylated FAN1 peptide” value in experiment [2] (listed as S184A ‘TRAF3’ mutant peptide) is “failed to bind”; in experiment [2] (listed as serine residue 184 to alanine (S184A)) it was “abrogated USP7 binding”.

For `NS(=O)(=O)OC[C@H]1C[C@@H](Nc2ccnc3cc(-c4cccc(SC(F)(F)F)c4)nn23)[C@H](O)[C@@H]1O` [TAK-243], the FAN1-USP7 binding result in experiment [3] is on record as “did not impact FAN1-USP7 binding”. Also, the cellular ubiquitin conjugates result in experiment [4] is reported as “depletion of cellular ubiquitin conjugates”.

For “{FITC-Ahx}-SSPQSAKS [TRAF3 S184A (8mer), FITC-labelled FAN1-derived 8mer peptide, S184A]”, the “binding to the USP7 TRAF domain (FP)” value in experiment [1] was “markedly impaired binding”.
